# Patent US20040034201A1, “Enhanced affinity hyaluronan binding peptides” (priority 1997, published 2004)
# Where two headings read alike, the source gives them in different places.
# How the values were obtained:
# [1] = tested on: Ras-transformed 10T1/2 fibroblasts; test: Apoptosis (Hoechst dye positive nuclei); assay type: cell-based; details: 100 ug/mL peptide or PD98059 50 ug/mL; 48 h
# Description: Ras-transformed 10T1/2 fibroblasts were grown to sub-confluence and were incubated with enhanced affinity hyaluronan binding peptide (shown in SEQ.ID.NO.:3) at a concentration of 100 ug/mL for 48 h. The cells were then stained with Hoechst dye using standard procedures and the percentage of apoptotic cells were determined by detection of positive stain in the nucleus of randomly selected cells.
# 10T1/2 fibroblasts = test: Cell proliferation in response to serum (hemocytometer counts); assay type: cell-based; details: 100 ug/mL peptide or PD98059 50 ug/mL, 48 h
# Description: 10T1/2 fibroblasts were grown to semi-confluence and were incubated with enhanced affinity hyaluronan binding peptide (shown in SEQ.ID.NO.:3) at a concentration of 100 ug/mL for 48 h. The cells were then trypsinized in 0.12% trypsin and counted using a hematocytometer. Released cells were stained with trypan blue and only viable cells were counted.
# [2] = peptide of WO 93/21312 with carboxy-terminal histidine; cited from earlier work
# Rat alveolar macrophages = test: Chemotaxis in Boyden chamber, rat alveolar macrophages to C5a; assay type: cell-based; details: MTT blue, n = 3 replicates, the values are: MTT absorbance (chemotaxis)
# Description: (§1) Ras-transformed 10T1/2 or parental 10T1/2 fibroblasts (Egan, S. E. et al., Science 238: 202-205, 1987; Hardwick, C. et al., J. Biol. Chem. 117: 1343-1350, 1992) were cultured in DMEM containing 10% fetal bovine serum (FBS) and maintained in 5% CO2 humidified atmospheric condition. Every second passage, cells were maintained in 600 ug/mL G418 for one passage to select for maintenance of the mutant active ras-geneticin construct in cells. Cells were passaged at confluence and utilized under 20 passages. Macrophages were obtained from lung lavage 1 h after bleomycin insertion (Gelzleichter, T. R. et al., Fund. Appl. Toxicol. 30: 39-46, 1996) and used immediately in assays. Neutrophils were obtained from human blood as described and used immediately.
# (§2) To assess the effects of enhanced affinity hyaluronan binding peptides and scrambled peptides on chemotaxis, a modified multi-well boyden chamber was utilized as described by Shi, Y. et al. (J. Immunol. Methods 164: 149-154, 1993).
# Human neutrophils = test: Chemotaxis in Boyden chamber, human neutrophils to IL-8; assay type: cell-based; details: MTT blue, n = 3 replicates, the values are: MTT absorbance (chemotaxis)
# Description: as §1, §2
# Alveolar macrophages = test: Random locomotion by image analysis, alveolar macrophages; assay type: cell-based; details: nuclear displacement by image analysis, n = 100 cells
# Description: as §1
# (§3) For routine analysis of random locomotion, 10T1/2 fibroblasts or leukocytes were subcultured into culture flasks coated with 20 ug/mL fibronectin and maintained in DMEM plus 10% FBS for 24-48 h. The enhanced affinity hyaluronan binding peptide (shown in SEQ.ID.NO.:3) or scrambled peptides were incubated with the cultures at concentrations of 50 ng to 1 ug per mL. […] Filming was conducted for up to 24 h with images recorded every 20 min.
# punch biopsy wound = test: Rat punch biopsy model of skin repair; assay type: in vivo
# Description: Three-month-old female Fischer rats were anesthesized and subjected to […] full thickness punch biopsies. Wounds were filled with a sterile solution of 1% collagen type 1 gel containing either PBS alone, HA binding peptide (shown in SEQ.ID.NO.:3) (20 mg/mL) or scrambled peptide (20 mg/mL) that contained the same amino acids as the HA binding peptide but in a random order. 100 uL of the collagen solution was applied to the punch biopsy wound and allowed to gel over 20 min. The wounds were then covered with a protective plastic shield that was sewn into the skin. Wounds were recovered from euthenized rats with a 9 mm punch biopsy.
# Recovered punch biopsies were extracted with RIPA buffer and total protein was determined with a Biorad protein assay. Protein (50 ug) was loaded onto each lane and proteins were separated by electrophoresis on SDS-PAGE. Separated proteins were transferred to a nitrocellulose blot and the blot was processed for reactivity to anti-RHAMM antisera or anti-CD44 antibody (Dillon, P. W. et al., J. Surg. Res. 57: 170-173, 1994).
# Messenger RNA was isolated by Micro-FastTrack Kit (Invitrogen, San Diego, Calif.). The quality of RNA samples was confirmed by denaturing gel electrophoresis. Reverse transcription was performed by using First Strand cDNA Synthesis kit (Clontech, Polo Alco, Calif.). Briefly, 0.2 ug of mRNA was used to generate cDNA using oligo(dT) 18 primer. Samples containing 0.2 ug of mRNA per time point was heat-denatured in DEPC-treated water for 2 min at 70° C. and incubated at 42° C. for 1 h in a total volume of 20 uL of 20 pmol primers, 0.5 mM of each dNTP, 1 unit/uL of RNase inhibitor and 200 units/ug RNA of MMLV. The reaction was stopped by heating at 94° C. for 5 min and to destroy any DNase activity. The reaction mixture was diluted to a final volume of 100 uL and aliquots were stored at −80° C. until further use.
# To distinguish between amplication of genomic DNA and complementary DNA, the primer pairs were designed to enclose at least one intron on the genomic sequences of RHAMM and beta-actin. […]
# S1 macrophage cell line = test: Chemotaxis in Boyden chamber, S1 macrophage cell line to C5a; assay type: cell-based; details: MTT blue, n = 3 replicates, the values are: MTT absorbance (chemotaxis)
# From the text: as §2
# [3] = tested on: Fibroblast (ras transformed); test: Random locomotion by image analysis, ras-transformed 10T1/2 fibroblasts on fibronectin; assay type: cell-based
# Description: as §1, §3
# [4] = HA binding of biotinylated peptides on HA-derivatized ELISA plates
# Description: A 15-mer phage display library was obtained from Chiron Inc. (CA). Hyaluronan (HA) was biotinylated and mixed with streptavidin-sepharose (Sigma) and washed. The Biotinylated HA was incubated with the phage library, then recovered with streptavidin-sepharose. The phage biotinylated HA-streptavidin -sepharose mixture was washed 4 times with phosphate buffered saline (PBS) and recovered phage were plated on a bacteria lawn in petri dishes. Clones were isolated and assessed for their ability to bind to HA. For the first screen, a total 75 clones were obtained after 4 cycles of screening. To assess the specificity of binding of these clones to HA, two approaches were taken. In the first, the ability of the clones to bind to biotin-sepharose or to streptavidin-sepharose were assessed. Clones were recovered from the bacteria lawn and mixed with biotin-sepharose and streptavidin-sepharose. Sepharose beads were washed 4 times with PBS and plated onto a bacteria lawn. In the second assay, clones were mixed with excess (100 ug/mL) HA (mean molecular weight: 700,000 daltons (Hyal, Ontario, Canada) together with biotinylated HA. After mixing the biotinylated HA was recovered with streptavidin-sepharose, washed as above and plated onto a bacteria lawn. Clones were sequenced in an automatic sequencer. A schematic diagram illustrating the isolation of enhanced affinity hyaluronan binding peptides from the 15-mer phage display library is shown in FIG. 1.
# Enhanced affinity HA binding peptides mimicking sequences obtained from the phage display library and scrambled peptides prepared from these sequences were tested for their HA binding properties. HA was derivatized to NUNC ELISA plates and biotinylated peptides were added to the plates and incubated for 2 h at room temperature. Plates were washed 4 times with PBS and then incubated with streptavidin-peroxidase for 1 h, washed, developed with hydrogen peroxide and their optical densities were determined. Controls were conducted using BSA-coated ELISA wells.
compound,measurement,setting,value
"COc1cccc(-c2cc(=O)c3ccccc3o2)c1N [PD98059, reference compound]",% Hoechst Positive Nuclei,[1],40 ± 2.5%
same,Number of Cells (×10^6),10T1/2 fibroblasts,0.5 ± 0.1 ×10^6
KLRSQLVHHH,ability to bind HA,[2],unable to bind to HA
STMMSRSHKTRSHH,"Rate of Locomotion, chemotaxis",Rat alveolar macrophages,0.425 ± 0.028
same,% Hoechst Positive Nuclei,[1],4.9 ± 0.9%
same,"Rate of Locomotion, chemotaxis",Human neutrophils,0.088 ± 0.009
same,"Rate of Locomotion, random locomotion",Alveolar macrophages,3.24 ± 0.53 um/h
same,HA accumulation within the remodelling dermal layer,"punch biopsy wound; at 24 h, biotinylated aggrecan staining",increase in HA accumulation
same,keratinocyte resurfacing of the wound (re-epithelialization),"punch biopsy wound; rat, applied in collagen gel to the wound, 24 h after injury",inhibited keratinocyte resurfacing of the wound
same,number of fibroblasts at the wound site,"punch biopsy wound; rat, peptide 20 mg/mL in collagen gel",reduced the number of fibroblasts
same,"Rate of Locomotion, chemotaxis",S1 macrophage cell line,0.238 ± 0.014
same,Number of Cells (×10^6),10T1/2 fibroblasts,2.4 ± 0.2 ×10^6
same,Concentrations optimal for inhibiting cell motility,"[3]; 10T1/2 fibroblasts or leukocytes, tested 50 ng to 1 ug per mL",50 to 100 ng/mL
same,"Rate of Locomotion, random locomotion","[3]; Fibroblast (ras transformed), nuclear displacement by image analysis, n = 100 cells",10.83 ± 1.07 um/h
same,ability to bind HA,[4],can bind to HA
TMTRPHFHKRQLVLS,ability to bind HA,[4],Enhanced affinity binding
STMMSRSHKTRSHHV [peptide of the Formula III with a valine residue at the C-terminal],ability to bind HA,[4],Enhanced affinity binding
STMMSRSHKTRSCHH,ability to bind HA,[4],can bind to HA
